In patent US12637438B2, “Protoporphyrinogen oxidase inhibitors” (Enko Chem, Inc., priority 2021, dated 2026):

Tested on: PPO dG210 mutant Tall Waterhemp (Amaranthus tuberculatus)
Format: in vivo
Conditions: relative to Flumioxazin, Sulfentrazone, and Pyroxasulfone

Structure (SMILES): C#CCN1C(=O)C(F)(F)Oc2cc(F)c(-c3c(F)c(F)c(F)c(F)c3F)cc21 [Compound 2, 2,2,7-trifluoro-6-(perfluorophenyl)-4-(prop-2-yn-1-yl)-2H-benzo[b][1,4]oxazin-3(4H)-one]
- resistant weed control, comparison in words: more effective at resistant weed control than the other commercially available herbicides
